Results: ChEMBL document CHEMBL1156070, “Functional and biochemical analysis of a key series of ramoplanin analogues” (Bioorg Med Chem Lett, 2009)
Converted amounts (≈) assume the structure as drawn. The source made the active and inactive calls. No cut-off for these calls is given here.

Assays:
[1] = Binding affinity to synthetic lipid 2 analogue fl-LPII
Staphylococcus aureus = assay: Antibacterial activity against Staphylococcus aureus ATCC 29213 after 24 hrs by microdilution assay; format: functional; settings: ATCC 29213, 24 h
Escherichia coli = assay: Inhibition of Escherichia coli PBP1b-mediated lipid 2 incorporation into peptidoglycon at 6 uM

SMILES: CC(C)C/C=C/C=C/C(=O)N[C@@H](CC(N)=O)C(=O)N[C@H]1CNC(=O)[C@H](c2ccc(O)c(Cl)c2)NC(=O)[C@@H](C)NC(=O)[C@H](CC(C)C)NC(=O)CNC(=O)[C@H](c2ccc(O)cc2)NC(=O)[C@@H]([C@@H](C)O)NC(=O)[C@H](c2ccc(O)cc2)NC(=O)C(C)NC(=O)[C@H](Cc2ccccc2)NC(=O)[C@H]([C@H](C)O)NC(=O)[C@@H](c2ccc(O)cc2)NC(=O)[C@H](c2ccc(O)cc2)NC(=O)[C@@H]([C@@H](C)O)NC(=O)[C@@H](CCCN)NC(=O)[C@@H](c2ccc(O)cc2)NC1=O (single isomer, unassigned)
- Kd [1]: 6500 nM
- MIC (Staphylococcus aureus): > 50 µg/mL
- inhibition (Escherichia coli): inactive

SMILES: CC(C)C/C=C/C=C/C(=O)N[C@@H](CC(N)=O)C(=O)N[C@H]1CNC(=O)[C@H](c2ccc(O)c(Cl)c2)NC(=O)[C@@H](C)NC(=O)[C@H](CC(C)C)NC(=O)CNC(=O)[C@H](c2ccc(O)cc2)NC(=O)[C@@H]([C@@H](C)O)NC(=O)[C@H](c2ccc(O)cc2)NC(=O)[C@@H](CCCN)NC(=O)[C@H](Cc2ccccc2)NC(=O)[C@H]([C@H](C)O)NC(=O)[C@@H](c2ccc(O)cc2)NC(=O)[C@H](c2ccc(O)cc2)NC(=O)[C@@H](C)NC(=O)[C@@H](CCCN)NC(=O)[C@@H](c2ccc(O)cc2)NC1=O
- Kd [1]: 447 nM
- MIC (Staphylococcus aureus): 2.4 µg/mL (≈ 1.11 µM)
- inhibition (Escherichia coli): Active

SMILES: CC(C)C/C=C/C=C/C(=O)N[C@@H](CC(N)=O)C(=O)N[C@H]1CNC(=O)[C@H](c2ccc(O)c(Cl)c2)NC(=O)[C@@H](C)NC(=O)[C@H](CC(C)C)NC(=O)CNC(=O)[C@H](c2ccc(O)cc2)NC(=O)[C@@H]([C@@H](C)O)NC(=O)[C@H](c2ccc(O)cc2)NC(=O)[C@@H](CCCN)NC(=O)C(C)NC(=O)[C@H]([C@H](C)O)NC(=O)[C@@H](c2ccc(O)cc2)NC(=O)[C@H](c2ccc(O)cc2)NC(=O)[C@@H]([C@@H](C)O)NC(=O)[C@@H](CCCN)NC(=O)[C@@H](c2ccc(O)cc2)NC1=O (single isomer, unassigned)
- Kd [1]: 383 nM
- MIC (Staphylococcus aureus): 1.6 µg/mL (≈ 0.758 µM)
- inhibition (Escherichia coli): Active

SMILES: CC(C)C/C=C/C=C/C(=O)N[C@@H](CC(N)=O)C(=O)N[C@H]1CNC(=O)[C@H](c2ccc(O)c(Cl)c2)NC(=O)[C@@H](C)NC(=O)[C@H](CC(C)C)NC(=O)CNC(=O)[C@H](c2ccc(O)cc2)NC(=O)[C@@H]([C@@H](C)O)NC(=O)[C@H](c2ccc(O)cc2)NC(=O)[C@@H](CCCN)NC(=O)[C@H](Cc2ccccc2)NC(=O)[C@H]([C@H](C)O)NC(=O)[C@@H](c2ccc(O)cc2)NC(=O)[C@H](C)NC(=O)[C@@H]([C@@H](C)O)NC(=O)[C@@H](CCCN)NC(=O)[C@@H](c2ccc(O)cc2)NC1=O
- Kd [1]: 378 nM
- MIC (Staphylococcus aureus): 1.6 µg/mL (≈ 0.759 µM)
- inhibition (Escherichia coli): Active

SMILES: CC(C)C/C=C/C=C/C(=O)N[C@@H](CC(N)=O)C(=O)N[C@H]1CNC(=O)[C@H](c2ccc(O)c(Cl)c2)NC(=O)[C@@H](C)NC(=O)[C@H](CC(C)C)NC(=O)CNC(=O)[C@H](c2ccc(O)cc2)NC(=O)[C@@H]([C@@H](C)O)NC(=O)[C@H](c2ccc(O)cc2)NC(=O)[C@@H](CCCN)NC(=O)[C@H](Cc2ccccc2)NC(=O)[C@H]([C@H](C)O)NC(=O)[C@@H](c2ccc(O)cc2)NC(=O)[C@H](c2ccc(O)cc2)NC(=O)[C@@H]([C@@H](C)O)NC(=O)[C@H](C)NC(=O)[C@@H](c2ccc(O)cc2)NC1=O
- Kd [1]: 4300 nM
- MIC (Staphylococcus aureus): 31 µg/mL (≈ 14.5 µM)
- inhibition (Escherichia coli): inactive

SMILES: CC(C)C/C=C/C=C/C(=O)N[C@@H](CC(N)=O)C(=O)N[C@H]1CNC(=O)[C@H](c2ccc(O)c(Cl)c2)NC(=O)[C@@H](C)NC(=O)[C@H](CC(C)C)NC(=O)CNC(=O)[C@H](c2ccc(O)cc2)NC(=O)[C@@H]([C@@H](C)O)NC(=O)[C@H](c2ccc(O)cc2)NC(=O)[C@@H](CCCN)NC(=O)[C@H](Cc2ccccc2)NC(=O)[C@H](C)NC(=O)[C@@H](c2ccc(O)cc2)NC(=O)[C@H](c2ccc(O)cc2)NC(=O)[C@@H]([C@@H](C)O)NC(=O)[C@@H](CCCN)NC(=O)[C@@H](c2ccc(O)cc2)NC1=O
- Kd [1]: 8700 nM
- MIC (Staphylococcus aureus): 38 µg/mL (≈ 17.6 µM)
- inhibition (Escherichia coli): inactive

SMILES: CC(C)C/C=C/C=C/C(=O)N[C@@H](CC(N)=O)C(=O)N[C@@H]1C(=O)N[C@H](c2ccc(O)cc2)C(=O)N[C@H](CCCN)C(=O)N[C@H]([C@@H](C)O)C(=O)N[C@@H](c2ccc(O)cc2)C(=O)N[C@H](c2ccc(O)cc2)C(=O)N[C@@H]([C@H](C)O)C(=O)N[C@@H](Cc2ccccc2)C(=O)N[C@H](CCCN)C(=O)N[C@@H](c2ccc(O)cc2)C(=O)N[C@H]([C@@H](C)O)C(=O)N[C@@H](c2ccc(O)cc2)C(=O)NCC(=O)N[C@@H](CC(C)C)C(=O)N[C@H](C)C(=O)N[C@@H](c2ccc(O)c(Cl)c2)C(=O)O[C@@H]1C(N)=O [RAMOPLANIN AGLYCON]
- Kd [1]: 40 nM
- MIC (Staphylococcus aureus): 0.4 µg/mL (≈ 0.179 µM)
- inhibition (Escherichia coli): Active

SMILES: CC(C)C/C=C/C=C/C(=O)N[C@@H](CC(N)=O)C(=O)N[C@H]1CNC(=O)[C@H](c2ccc(O)c(Cl)c2)NC(=O)[C@@H](C)NC(=O)[C@H](CC(C)C)NC(=O)CNC(=O)[C@H](c2ccc(O)cc2)NC(=O)[C@@H]([C@@H](C)O)NC(=O)[C@H](c2ccc(O)cc2)NC(=O)[C@@H](CCCN)NC(=O)[C@H](Cc2ccccc2)NC(=O)[C@H]([C@H](C)O)NC(=O)[C@H](C)NC(=O)[C@H](c2ccc(O)cc2)NC(=O)[C@@H]([C@@H](C)O)NC(=O)[C@@H](CCCN)NC(=O)[C@@H](c2ccc(O)cc2)NC1=O
- Kd [1]: 1200 nM
- MIC (Staphylococcus aureus): 13 µg/mL (≈ 6.17 µM)
- inhibition (Escherichia coli): inactive

SMILES: CC(C)C/C=C/C=C/C(=O)N[C@@H](CC(N)=O)C(=O)N[C@H]1CNC(=O)[C@H](c2ccc(O)c(Cl)c2)NC(=O)[C@@H](C)NC(=O)[C@H](CC(C)C)NC(=O)CNC(=O)[C@H](c2ccc(O)cc2)NC(=O)[C@@H]([C@@H](C)O)NC(=O)[C@H](c2ccc(O)cc2)NC(=O)[C@@H](CCCN)NC(=O)[C@H](Cc2ccccc2)NC(=O)[C@H]([C@H](C)O)NC(=O)[C@@H](c2ccc(O)cc2)NC(=O)[C@H](c2ccc(O)cc2)NC(=O)[C@@H]([C@@H](C)O)NC(=O)[C@@H](CCCN)NC(=O)[C@H](C)NC1=O
- MIC (Staphylococcus aureus): 13 µg/mL (≈ 6.17 µM)
- inhibition (Escherichia coli): Active

SMILES: CC(C)C/C=C/C=C/C(=O)N[C@@H](CC(N)=O)C(=O)N[C@H]1CNC(=O)[C@H](c2ccc(O)c(Cl)c2)NC(=O)[C@@H](C)NC(=O)[C@H](CC(C)C)NC(=O)CNC(=O)[C@H](c2ccc(O)cc2)NC(=O)[C@@H]([C@@H](C)O)NC(=O)[C@H](C)NC(=O)[C@@H](CCCN)NC(=O)[C@H](Cc2ccccc2)NC(=O)[C@H]([C@H](C)O)NC(=O)[C@@H](c2ccc(O)cc2)NC(=O)[C@H](c2ccc(O)cc2)NC(=O)[C@@H]([C@@H](C)O)NC(=O)[C@@H](CCCN)NC(=O)[C@@H](c2ccc(O)cc2)NC1=O
- Kd [1]: 6300 nM
- MIC (Staphylococcus aureus): 6.3 µg/mL (≈ 2.99 µM)
- inhibition (Escherichia coli): inactive

SMILES: CC(C)C/C=C/C=C/C(=O)N[C@@H](CC(N)=O)C(=O)N[C@H]1CNC(=O)[C@H](c2ccc(O)c(Cl)c2)NC(=O)[C@@H](C)NC(=O)[C@H](CC(C)C)NC(=O)CNC(=O)[C@H](c2ccc(O)cc2)NC(=O)[C@H](C)NC(=O)[C@H](c2ccc(O)cc2)NC(=O)[C@@H](CCCN)NC(=O)[C@H](Cc2ccccc2)NC(=O)[C@H]([C@H](C)O)NC(=O)[C@@H](c2ccc(O)cc2)NC(=O)[C@H](c2ccc(O)cc2)NC(=O)[C@@H]([C@@H](C)O)NC(=O)[C@@H](CCCN)NC(=O)[C@@H](c2ccc(O)cc2)NC1=O
- Kd [1]: 5400 nM
- MIC (Staphylococcus aureus): 33 µg/mL (≈ 15.3 µM)
- inhibition (Escherichia coli): inactive

SMILES: CC(C)C/C=C/C=C/C(=O)N[C@@H](CC(N)=O)C(=O)N[C@H]1CNC(=O)[C@H](c2ccc(O)c(Cl)c2)NC(=O)[C@@H](C)NC(=O)[C@H](CC(C)C)NC(=O)CNC(=O)[C@H](c2ccc(O)cc2)NC(=O)[C@@H]([C@@H](C)O)NC(=O)[C@H](c2ccc(O)cc2)NC(=O)[C@@H](CCCN)NC(=O)[C@H](Cc2ccccc2)NC(=O)[C@H]([C@H](C)O)NC(=O)[C@@H](c2ccc(O)cc2)NC(=O)[C@H](c2ccc(O)cc2)NC(=O)[C@@H]([C@@H](C)O)NC(=O)[C@@H](CCCN)NC(=O)[C@@H](c2ccc(O)cc2)NC1=O
- Kd [1]: 33 nM
- MIC (Staphylococcus aureus): 0.4 µg/mL (≈ 0.183 µM)
- inhibition (Escherichia coli): Active
